According to patent US9586936B2, “Heteroarylamine derivatives as protein kinase inhibitors” (KOREA INSTITUTE OF SCIENCE AND TECHNOLOGY, priority 2014, dated 2017):

Columns and labels:
[1] = in-vivo PK profile, mouse PK; conditions: ICR mice
Text: The in-vivo PK profile (mouse PK/ICR mice and rat PK/Sprague-Dawley rat) of N-(2,6-dichloro-3,5-dimethoxyphenyl)-1-(6-((4-(4-ethylpiperazin-1-yl)phenyl)amino)pyrimidin-4-yl)-1H-benz[d]imidazol-2-amine synthesized in Example 1 is as follows.

microsomal stability = format: in vitro ADME, Human; conditions: for microsomal stability (% at time): Human
Experimental: The microsomal stability of N-(2,6-dichloro-3,5-dimethoxyphenyl)-1-(6-((4-(4-ethylpiperazin-1-yl)phenyl)amino)pyrimidin-4-yl)-1H-benz[d]imidazol-2-amine synthesized in Example 1, as a representative compound of the present invention, was evaluated.

CCN1CCN(c2ccc(Nc3cc(-n4c(Nc5c(Cl)c(OC)cc(OC)c5Cl)nc5ccccc54)ncn3)cc2)CC1 [Example 1, N-(2,6-dichloro-3,5-dimethoxyphenyl)-1-(6-((4-(4-ethylpiperazin-1-yl)phenyl)amino)pyrimidin-4-yl)-1H-benz[d]imidazol-2-amine]
F* ([1]; PO 10 mg/kg): 23.44%
AUC(0-inf) ([1]; mouse, in vivo, IV 5 mg/kg): 0.35 µg·h/mL
AUC(0-t) ([1]; mouse, in vivo, IV 5 mg/kg): 0.322 µg·h/mL
Cmax ([1]; mouse, in vivo, IV 5 mg/kg): 0.111 µg/mL
Tmax ([1]; mouse, in vivo, IV 5 mg/kg): 0.083 h
clearance ([1]; mouse, in vivo, IV 5 mg/kg): 14.3 L/h/kg
half-life ([1]; mouse, in vivo, IV 5 mg/kg): 1.83 h
MRT inf ([1]; mouse, in vivo, IV 5 mg/kg, read-out: MRT(0-∞)): 3.56 h
Vd ([1]; mouse, in vivo, IV 5 mg/kg, read-out: Vz): 37.7 L/kg
AUC(0-t) ([1]; mouse, in vivo, PO 10 mg/kg): 0.151 µg·h/mL
Cmax ([1]; mouse, in vivo, PO 10 mg/kg): 0.0271 µg/mL
Tmax ([1]; mouse, in vivo, PO 10 mg/kg): 6 h
microsomal stability (% at time) (microsomal stability; 0 min): 100.00%
microsomal stability (% at time) (microsomal stability; 5 min): 80.36%
microsomal stability (% at time) (microsomal stability; 10 min): 76.63%
microsomal stability (% at time) (microsomal stability; 15 min): 64.04%
microsomal stability (% at time) (microsomal stability; 30 min): 51.45%
microsomal stability (% at time) (microsomal stability; 45 min): 37.62%
microsomal stability (% at time) (microsomal stability; 60 min): 36.17%
half-life (microsomal stability; microsomes, Human microsomal stability): 0.566 h
